Entries after “also recorded” stand apart in the source; their conditions may differ. [FluoU] = uridine (ribose) carrying fluorescein on the base; {invT} = 3'-3' inverted thymidine; m = 2'-O-methyl; r = 2'-OH (RNA)
Columns and labels:
[1] = tested on: NHIK 3025 cells; assay: Protein synthesis (3[H]leucine incorporation) after photosensitizer, toxin and light; format: cell-based, human
Method: FIG. 2 illustrates protein synthesis in NHIK 3025 cells after treatment with gelonin in the absence or presence of TPPS2a and 50 sec light exposure. Symbols: ◯, TPPS2a+light; ●, −TPPS2a−light; ∇, +TPPS2a−light; ▾, −TPPS2a+light. […] Protein synthesis was measured by measuring incorporation of ^3[H]leucine into proteins, 24 hours after light exposure.
(§1) NHIK 3025 cells were incubated with TPPS2a (Formula I) and gelonin, separately or together for 18 hours, followed by 1 hour in TPPS2a and gelonin-free medium before the cells were exposed to light. Protein synthesis was measured 24 hours after exposure to light. The photodynamic treatment, which kills 10-20% of the cells alone, reduced the protein synthesis by 30-40% (FIG. 2).
(§2) The intracellular location of the photosensitizers are lysosomal (TPPS4, TPPS2a, AlPcS2a) and extralysosomal (3-THPP). The following abbreviations are used: AlPcS2a for aluminum phtalocyanine with 2 sulfonate groups on adjacent phenyl rings; TPPS4 for meso-tetraphenylporphine with 4 sulfonate groups; TPPS2a for meso-tetraphenylporphine with 2 sulfonate groups on adjacent phenyl rings; 3-THPP for tetrahydroxylphenyl porphine. The cell lines used were carcinoma cells in situ from human cervix (NHIK 3025), Chinese hamster lung fibroblasts (V79), SV40-transformed African Green monkey kidney (CV1-simian fibroblasts-like cells) (Cos-7) human osteosarcoma cells (OHS) and small cell lung cancer cells (H146). All experiments were designed as in Example 1.

[2] = tested on: NHIK 3025 cells; assay: Cell killing / clonogenic survival after TPPS2a, gelonin and light; format: cell-based, human
Method: as §1
NHIK 3025 cells were incubated with TPPS2a and gelonin according to the design of Example 1.
Clonogenic survival of the cells was measured 24 hours after exposure to light. […] This is in accordance with prior art regarding killing unwanted cells with PDT. […] Increased concentration of added gelonin leads to more gelonin in the cytosol, as indicated by an increased sensitivity of the cells to photoactivation.

[3] = tested on: V79 cells; assay: Protein synthesis after photosensitizer and light with or without gelonin; format: cell-based, Chinese hamster; details: 25 μg/ml AlPcS2a
Method: FIG. 5 illustrates protein synthesis in V79 cells after treatment with 25 μg/ml AlPcS2 and light in the absence and presence of 1 μg/ml gelonin. Symbols: ● Photosensitizer+toxin; ◯ photosensitizer.
as §2
This example relates to use of the photosensitizer AlPcS2a in V79 cells with or without gelonin as the toxin (FIG. 5). […] (Moan, J., Berg, K., Anholt, H. and Madslien, K. (1994). Sulfonated aluminum phtalocyanines as sensitizers for photochemotherapy. Effects of small light doses on localization, dye fluorescence and photosensitivity in V79 cells. Int. J. Cancer 58: 865-870.)

[4] = tested on: H146 cells; assay: Protein synthesis after TPPS2a and light with or without gelonin; format: cell-based; details: 0.3 μg/ml TPPS2a, 1 μg/ml gelonin
Method: FIG. 6 illustrates protein synthesis in H146 cells after treatment with 0.3 μg/ml TPPS2a and light in the absence and presence of 1 μg/ml gelonin. Symbols as in FIG. 5.
as §2
(FIG. 6). TPPS2a is known to be lysosomally located in the cell. […]

[5] = tested on: COS-7 cells; assay: as above; format: cell-based, African Green monkey; details: 3 μg/ml TPPS2a, 1 μg/ml gelonin
Method: FIG. 11 illustrates protein synthesis in COS-7 cells after treatment with 3 μg/ml TPPS2a and light in the absence and presence of 1 μg/ml gelonin. Symbols as in FIG. 5.
as §2

[6] = tested on: OHS cells; assay: as above; format: cell-based, human; details: 3 μg/ml TPPS2a, 3 μg/ml gelonin, 50 μM chloroquine or 10 mM NH4Cl
Method: FIG. 13 illustrates protein synthesis in OHS cells after treatment with 3 μg/ml TPPS2a for 18 hours followed by 4 hours in the absence of TPPS2a and in the absence or presence of 3 μg/ml gelonin before exposure to light. The cells were incubated for the same 4 hours in 50 μM chloroquine or 10 mM NH4Cl to inhibit lysosomal protein degradation.
as §2
(FIG. 13). In this cell line there is a considerable protein degradation in the lysosomes, which in the present example is inhibited by incubating the cells for 4 hours in either 50 μM chloroquine or 10 mM NH4Cl.

[7] = tested on: THX-cells; assay: Transfection efficiency after PCI with different doses of AlPcS2a (Example 20); format: cell-based, human; details: 5 or 40 μg/ml AlPcS2a, pEGFP-N1-polylysine complex, 2 or 4 min light
Method: FIG. 21 illustrates transfection efficiency after PCI with different doses of AlPcS2a. Cells were treated with different doses of the photosensitizer, transfected with a plasmid DNA-polylysine complex and analysed by flow cytometry as described in the text of Example 20. the white bars represent an AlPcS2a dose of 5 μg/ml, while the black bars represent 40 μg/ml.
THX-cells were seeded out into 6 well plates (60 000 cells per well). After overnight incubation AlPcS2a in concentrations of 5 μg/ml or 40 μg/ml was added, and the cells were incubated for 18 h at 37° C. The cells were then washed 3 times with culture medium and transfected with pEGFP-N1-polylysine complex (amount of plasmid 5 μg/ml, charge ratio 1.2, see Example 17) for 6 h. The transfected cells were washed once with medium, and after addition of 2 ml of culture medium the cells were exposed to red light (Phillips TL 20 W/09, filtered through a Cinemoid 35 filter) for 2 or 4 min (control cells were not exposed to the light) and incubated further at 37° C. for 40 hrs before flow cytometry analysis (see Example 17).

[8] = tested on: THX human melanoma cells; assay: PCI relocalization of fluorescein-labeled ribozyme (fluorescence microscopy); format: cell-based
Method: FIG. 14 illustrates subcellular localization of a fluorescein-ribozyme (5.5 μM) and AlPcS2a (20 μg/ml) in THX cells after 18 h incubation followed by 1 h wash. The Figure illustrates localization without light exposure (A) and after 10 min red light exposure followed by 40 min incubation in the dark (B). (Magnification 40×2.5).
The ribozyme employed in this example was a 37-mer synthetic 2′-O-methylated ribozyme designed against mRNA of the metastasis associated protein capl. The sequence (SEQ ID NO:1) was as follows:
5′-UAGUUCUCU GAUGAGGCCGNUAGGCCGAAA CUUGUU Y-3′, (SEQ ID NO: 1) where N is bases with 2′-O-methylated ribose, Y is uridine with a 3′-3′ inverted thymidine at the 3′ end, N is fluorescein attached to uracil.
To study the intracellular localization of the photosensitizer AlPcS2a and the ribozyme, THX human melanoma cells were plated on 16 well Lab-Tek (Nunc Inc.) chamber slides (3000 cells well^−1). After 18 h the culture medium was replaced with fresh RPMI medium supplemented with 10% fetal calf serum (FCS, Integro b.v., Holland) and containing […] AlPcS2a and […] ribozyme. […]
Control cells were observed without irradiation. […] Phase-contrast and fluorescence micrographs were recorded by means of a cooled charge-coupled device (CCD) camera (Astromed 3200, Cambridge, England).

[9] = tested on: lysosomal cathepsin; assay: Inhibition of lysosomal cathepsin by photodynamic action; format: cell-based, human; details: culture of NHIK 3025 cells
Text: This was a surprising effect of the present invention and assists in maintaining the viability and functionality of the cells after transporting molecules into cytosol by disrupting endosomal/lysosomal membranes.

[10] = tested on: THX-cells; assay: PCI-induced transfection of TPPS2a-treated THX-cells (Example 23); format: cell-based, human; details: 2 μg/ml TPPS2a, blue light 30-150 s, pEGFP-N1-polylysine complex
Method: FIG. 24 illustrates PCI induced transfection of TPPS2a-treated THX-cells. Cells were treated with TPPS2a and transfected with a complex of plasmid DNA and polylysine as described in the text of Example 23. After light treatment the cells were analysed by flow cytometry. The white circle represents the total population of living cells, the black sector represents the fraction of cells that was positive for GFP-expression. Light exposure times are indicated on the Figure.
A pEGFP-N1-polylysine complex (5 μg DNA, charge ratio 1.2 was prepared as described above (see Example 17).
THX-cells were seeded out into 6 well plates (60 000 cells per well). After overnight incubation 2 μg/ml of the photosensitizer TPPS2a was added and the cells were incubated further for 18 h at 37° C. The cells were then washed 3 times with culture medium and transfected with the pEGFP-N1-polylysine complex for 6 h. The transfected cells were washed once with medium, and after addition of 2 ml of culture medium the cells were exposed to blue light (Appl. Photophysics, Nood. 3026, London) for 30, 60, 90, 120 or 150 s (control cells were not exposed to the light) and incubated further at 37° C. After 2 days the cells were seeded out into bigger 3004 dishes and incubated further so that the total incubation time before flow cytometry analysis was 108 h.

Compound: saporin
- transport of toxin into cells by TPPS2a and light ([1]; 3.2 μg/ml TPPS2a, 1 μg/ml toxin): demonstrates transport of the toxin saporin into NHIK 3025 cells

Compound: Oc1cccc(-c2c3nc(c(-c4cccc(O)c4)c4ccc([nH]4)c(-c4cccc(O)c4)c4nc(c(-c5cccc(O)c5)c5ccc2[nH]5)C=C4)C=C3)c1 [3-THPP, tetrahydroxylphenyl porphine, reference compound]
- difference in protein synthesis effect with or without gelonin ([1]; 0.25 μg/ml 3-THPP, light, 1 μg/ml gelonin, comparative example): no significant difference

Compound: gelonin
- IC50 of gelonin for inhibition of protein synthesis when combining PDT and gelonin ([1]; 3.2 μg/ml TPPS2a, 50 sec light, measured 24 hours after light): 0.2 µg/mL
- transport of gelonin into cells with TPPS4 and light ([1]; 75 μg/ml TPPS4, 50 sec light, different gelonin concentrations): demonstrates transport of gelonin into NHIK 3025 cells
- transport of gelonin into cells in controls ([1]; gelonin alone with light, or TPPS4 and gelonin without light): no transport of gelonin into the cells was obtained
- effect of gelonin alone on protein synthesis ([1]; gelonin alone, presence or absence of light, no PDT): inhibits protein synthesis to some extent
- clonogenic survival when gelonin is added to TPPS2a and light ([2]; 0.2 or 2.0 μg/ml gelonin): the survival rate drops
- protein synthesis with photosensitizer, light and gelonin ([3]; 1 μg/ml gelonin): profoundly reduced
- transport of toxin into cells by TPPS2a and light [4]: transport of the toxin gelonin into H146 cells without essentially affecting the viability of the cells
- transport of toxin into cells by TPPS2a and light [5]: demonstrates the transport of gelonin into COS-7 cells
- transport of toxin into cells by TPPS2a and light [6]: demonstrates the transport of gelonin into OHS cells

Compound: aluminum phtalocyanine with 2 sulfonate groups on adjacent phenyl rings [AlPcS2a, reference compound]
- protein synthesis with photosensitizer and light, without toxin ([3]; selected light dose): small reduction in protein synthesis
- percentage of transfected cells versus photosensitizer concentration [7]: increased with increasing photosensitizer concentration

Compound: ribozyme: 37-mer synthetic 2′-O-methylated fluorescein-labeled ribozyme designed against mRNA of the metastasis associated protein capl (SEQ ID NO:1) (UAGUUCUCUGAUGAGGCCGUUAGGCCGAAACUUGUUY; sugars from the 5' end mmmmmmmmmrrmrrrrmmrrrrrrmmrrrrmmmmmmr, [FluoU] at 20, 3' {invT}, backbone and the base at N not given here)
- subcellular localization, nonirradiated cells ([8]; 5.5 μM ribozyme, 20 μg/ml AlPcS2a, 18 h, no light): mainly localized in intracellular granules
- subcellular localization after light exposure ([8]; 10 min red light, then 40 min): most of the ribozyme fluorescence was present in the cytosol

Compound: O=S(=O)(O)c1ccc(-c2c3nc(c(-c4ccc(S(=O)(=O)O)cc4)c4ccc([nH]4)c(-c4ccccc4)c4nc(c(-c5ccccc5)c5ccc2[nH]5)C=C4)C=C3)cc1 [TPPS2a, meso-tetraphenylporphine with 2 sulfonate groups on adjacent phenyl rings]
- reduction of protein synthesis by the photodynamic treatment alone ([1]; TPPS2a and light, no gelonin, 24 hours after light): 30-40%
- cells killed by the photodynamic treatment alone ([2]; TPPS2a and light, no gelonin): 10-20%
- clonogenic survival with TPPS2a and light ([2]; light exposure increased, 24 hours after light): virtually all cells were killed
- inhibition of lysosomal cathepsin by photodynamic action [9]: substantially inhibited
- transfection-enhancing effect of PCI light treatment with TPPS2a as photosensitizer [10]: substantial transfection-enhancing effect; also recorded: essentially the same as for AIPcS2a

From patent US6680301B2, “Transfer of molecules into the cytosol of cells” (Photocure AS, priority 1994, dated 2004)
